# Source: the supplement of paper PMC11208160
# Test: recombinant barcode read abundance after kanamycin selection (control-corrected) (log10(CPM+1)); higher = more efficient recombination; sequences stand for … in AGTGCAGAGAAAATCGGCCAGTTTTCTCTGCCTGCAGTCCGCATGCCGT…AGATTTATGCAGCGGACTGCCTTTCTCCCAAAGTGATAAACCGGACAGTATCATGGACCGGTTTTCCCGGTAATCCGTATTTGCAAGGTTGGTTTCACT; site = the 11-nt target
# Procedure, shortened: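 The screen was pooled in E. coli and paired targets with IS621 bridge RNA target-binding loops. Recombination efficiency is taken from barcode counts per million at recombinant junctions, averaged and adjusted against the control. Values, in the form log10(CPM+1), come from duplicate plating on chloramphenicol/ampicillin LB agar or on chloramphenicol/ampicillin/kanamycin with 0.1 mM IPTG.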
# 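Note: IS621 recombinase and bridge RNA in Escherichia coli cells.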
row,Sequence,recombinant barcode read abundance (log10)
1,GCCATAACTTGGGTTCTAACCTGTTGCCT (site GCCATTACTAG),0.191
2,GCCCGAACTTGGGTTCTAACCTGTTGCCT (site GCACGAACTAG),0.141
3,GCCCGAACTTGGGTTCTAACCTGTTGCCT (site GCCCGAACTAG),0.998
4,GCCCGAACTTGGGTTCTAACCTGTTGCCT (site GCGCGAACTAG),0.0267
5,GCCCGAACTTGGGTTCTAACCTGTTGCCT (site GCTCGAACTAG),0.101
6,GCCCGATCTTGGGTTCTAACCTGTTGCCT (site GCCCAATCTAG),0.743
7,GCCCGATCTTGGGTTCTAACCTGTTGCCT (site GCCCCATCTAG),0.179
8,GCCCGATCTTGGGTTCTAACCTGTTGCCT (site GCCCGATCTAG),1.42
9,GCCCGATCTTGGGTTCTAACCTGTTGCCT (site GCCCTATCTAG),0.0709
10,GCCCGGGCTTGGGTTCTAACCTGTTGCGG (site GCCCGGGCTCC),2.39
11,GCCCGGGCTTGGGTTCTAACCTGTTGCGG (site GGCCGGGCTCC),0.022
12,GCCCTATCTTGGGTTCTAACCTGTTGCCT (site GCCCAATCTAG),0.0981
13,GCCCTATCTTGGGTTCTAACCTGTTGCCT (site GCCCCATCTAG),0.107
14,GCCCTATCTTGGGTTCTAACCTGTTGCCT (site GCCCGATCTAG),0.0182
15,GCCCTATCTTGGGTTCTAACCTGTTGCCT (site GCCCTATCTAG),1.35
16,GCCCTGCCTTGGGTTCTAACCTGTTGCGT (site GCCCTGCCTAC),2.62
17,GCCCTGCCTTGGGTTCTAACCTGTTGCGT (site TACCTGCCTAC),0.133
18,GCCGAAACTTGGGTTCTAACCTGTTGCCT (site GCCGAAACTAG),0.0181
19,GCCGAAACTTGGGTTCTAACCTGTTGCCT (site GCCGACACTAG),0.0951
20,GCCGAAACTTGGGTTCTAACCTGTTGCCT (site GCCGAGACTAG),0.052
21,GCCGAAACTTGGGTTCTAACCTGTTGCCT (site GCCGATACTAG),0.311
22,GCCGAGCCTTGGGTTCTAACCTGTTGCCA (site GCCGAGCCTTG),0.21

row,Sequence,recombinant barcode read abundance (log10)
1,GCCGAGCCTTGGGTTCTAACCTGTTGCCA (site TAGTGAACTGT),0.432
2,GCCGAGGCTTGGGTTCTAACCTGTTGCTG (site GCCGAGGCTCA),0.439
3,GCCGAGGCTTGGGTTCTAACCTGTTGCTG (site GTCTAGGCTCA),0.326
4,GCCGAGTCTTGGGTTCTAACCTGTTGCAC (site GCCGAGTCTAG),0.288
5,GCCGAGTCTTGGGTTCTAACCTGTTGCAC (site GCCGAGTCTGT),1.25
6,GCCGAGTCTTGGGTTCTAACCTGTTGCTA (site GCCGAGTCTAA),0.0891
7,GCCGAGTCTTGGGTTCTAACCTGTTGCTA (site GCCGAGTCTCA),0.357
8,GCCGAGTCTTGGGTTCTAACCTGTTGCTA (site GCCGAGTCTGA),0.0866
9,GCCGAGTCTTGGGTTCTAACCTGTTGCTA (site GCCGAGTCTTA),0.411
10,GCCGATACTTGGGTTCTAACCTGTTGCCT (site GCCGAAACTAG),0
11,GCCGATACTTGGGTTCTAACCTGTTGCCT (site GCCGACACTAG),0.171
12,GCCGATACTTGGGTTCTAACCTGTTGCCT (site GCCGAGACTAG),0.197
13,GCCGATACTTGGGTTCTAACCTGTTGCCT (site GCCGATACTAG),0.113
14,GCCGGGCCTTGGGTTCTAACCTGTTGCCT (site GCCGGGCCTAG),0.265
15,GCCGGGCCTTGGGTTCTAACCTGTTGCCT (site GCTGCGCCTAG),0.0616
16,GCCGGGGCTTGGGTTCTAACCTGTTGCCG (site GCCAGGGCTCG),0.262
17,GCCGGGGCTTGGGTTCTAACCTGTTGCCG (site GCCCGGGCTCG),0.452
18,GCCGGGGCTTGGGTTCTAACCTGTTGCCG (site GCCGGGGCTCG),0.186
19,GCCGGGGCTTGGGTTCTAACCTGTTGCCG (site GCCTGGGCTCG),0.258
20,GCCGTCCCTTGGGTTCTAACCTGTTGCTA (site GCCGTCCCTTA),0.202
21,GCCGTCCCTTGGGTTCTAACCTGTTGCTA (site GTCGTCCCTTG),0.106
22,GCCGTCTCTTGGGTTCTAACCTGTTGCCT (site GCCATCTCTAG),0.114

row,Sequence,recombinant barcode read abundance (log10)
1,GCCGTCTCTTGGGTTCTAACCTGTTGCCT (site GCCGTCTCTAG),0.135
2,GCCTCGCCTTGGGTTCTAACCTGTTGCAG (site GCCACGCCTCT),0.341
3,GCCTCGCCTTGGGTTCTAACCTGTTGCAG (site GCCCCGCCTCT),0.133
4,GCCTCGCCTTGGGTTCTAACCTGTTGCAG (site GCCGCGCCTCT),0.326
5,GCCTCGCCTTGGGTTCTAACCTGTTGCAG (site GCCTCGCCTCT),0.229
6,GCCTGCCCTTGGGTTCTAACCTGTTGCTG (site GCCTGCCCTCA),1.51
7,GCCTGCCCTTGGGTTCTAACCTGTTGCTG (site TGGGTGACTAG),0.0502
8,GCGAAGTCTTGGGTTCTAACCTGTTGCTT (site GCGAACACTAA),0.0375
9,GCGAAGTCTTGGGTTCTAACCTGTTGCTT (site GCGAAGTCTAA),1.15
10,GCGAATCCTTGGGTTCTAACCTGTTGCCT (site GCGAATCCTAG),0.845
11,GCGAATCCTTGGGTTCTAACCTGTTGCCT (site GCGCATCCTAG),0.213
12,GCGAATCCTTGGGTTCTAACCTGTTGCCT (site GCGGATCCTAG),0.069
13,GCGAATCCTTGGGTTCTAACCTGTTGCCT (site GCGTATCCTAG),0.099
14,GCGACTCCTTGGGTTCTAACCTGTTGCAT (site GCGACTCCTAT),0.857
15,GCGACTCCTTGGGTTCTAACCTGTTGCAT (site GCGCCTCCTAT),0.118
16,GCGACTCCTTGGGTTCTAACCTGTTGCAT (site GCGGCTCCTAT),0.14
17,GCGACTCCTTGGGTTCTAACCTGTTGCAT (site GCGTCTCCTAT),0.0718
18,GCGACTCCTTGGGTTCTAACCTGTTGCTA (site GAGACTCCTTA),0.739
19,GCGACTCCTTGGGTTCTAACCTGTTGCTA (site GCGACTCCTTA),0.619
20,GCGAGCTCTTGGGTTCTAACCTGTTGCCT (site GCGAGCTCTAG),1.6
21,GCGAGCTCTTGGGTTCTAACCTGTTGCCT (site GCGCGTTCTAG),0.291
22,GCGATGTCTTGGGTTCTAACCTGTTGCCT (site GAGATGTCTAG),0.183

row,Sequence,recombinant barcode read abundance (log10)
1,GCGATGTCTTGGGTTCTAACCTGTTGCCT (site GCGATGTCTAG),1.33
2,GCGATGTCTTGGGTTCTAACCTGTTGCCT (site GGGATGTCTAG),0.514
3,GCGATGTCTTGGGTTCTAACCTGTTGCCT (site GTGATGTCTAG),0.116
4,GCGCGGCCTTGGGTTCTAACCTGTTGCTT (site GCACGCCCTAA),0.0904
5,GCGCGGCCTTGGGTTCTAACCTGTTGCTT (site GCGCGGCCTAA),0.492
6,GCGCTAACTTGGGTTCTAACCTGTTGCCT (site GCGCTAACTAG),1.05
7,GCGCTAACTTGGGTTCTAACCTGTTGCCT (site TCGCTAACTAG),0.169
8,GCGCTCCCTTGGGTTCTAACCTGTTGCCT (site GCACTCCCTAG),1.25
9,GCGCTCCCTTGGGTTCTAACCTGTTGCCT (site GCCCTCCCTAG),0.388
10,GCGCTCCCTTGGGTTCTAACCTGTTGCCT (site GCGCTCCCTAG),0.926
11,GCGCTCCCTTGGGTTCTAACCTGTTGCCT (site GCTCTCCCTAG),0.145
12,GCGGACTCTTGGGTTCTAACCTGTTGCCA (site GCGGACTCTTG),2.09
13,GCGGACTCTTGGGTTCTAACCTGTTGCCA (site GCGTACTCTAG),0.0401
14,GCGGAGTCTTGGGTTCTAACCTGTTGCGT (site GCGGAGTCTAC),1.45
15,GCGGAGTCTTGGGTTCTAACCTGTTGCGT (site GCTAAGTCTAC),0.0484
16,GCGGATCCTTGGGTTCTAACCTGTTGCCT (site GCGAATCCTAG),0.824
17,GCGGATCCTTGGGTTCTAACCTGTTGCCT (site GCGCATCCTAG),0.0111
18,GCGGATCCTTGGGTTCTAACCTGTTGCCT (site GCGGATCCTAG),2.11
19,GCGGATCCTTGGGTTCTAACCTGTTGCCT (site GCGTATCCTAG),1.05
20,GCGGCGACTTGGGTTCTAACCTGTTGCCT (site GCAGCGACTAG),0.291
